Laboratory results: US8791303B2, “Herbicides” (Syngenta Limited, priority 2009, dated 2014)

Key:
Type in all cases: in vivo
[1] = test system: Alopecurus myosuroides (ALOMY); assay: Example A glasshouse herbicide test, pre-emergence, ALOMY; conditions: Alopecurus myosuroides, pre-emergence, 312 h, Rate 250 g/ha, sprayed after cultivation for one day, evaluated after 13 days, read-out: Pre-Emergence Activity ALOMY (100=total damage to plant; 0=no damage to plant)
Method: (§1) Seeds of a variety of test species are sown in standard soil in pots. After cultivation for one day (pre-emergence) or after 8 days cultivation (post-emergence) under controlled conditions in a glasshouse (at 24/16° C., day/night; 14 hours light; 65% humidity), the plants are sprayed with an aqueous spray solution derived from the formulation of the technical active ingredient in acetone/water (50:50) solution containing 0.5% Tween 20 (polyoxyethelyene sorbitan monolaurate, CAS RN 9005-64-5).
(§2) The test plants are then grown in a glasshouse under controlled conditions in a glasshouse (at 24/16° C., day/night; 14 hours light; 65% humidity) and watered twice daily. After 13 days for pre and post-emergence, the test is evaluated (100=total damage to plant; 0=no damage to plant).
(§3) Lolium perenne (LOLPE), Alopecurus myosuroides (ALOMY), Echinochloa crus-galli (ECHCG), Avena fatua (AVEFA)

Avena fatua (AVEFA) [2] = assay: Example A glasshouse herbicide test, pre-emergence, AVEFA; conditions: Avena fatua, pre-emergence, 312 h, Rate 250 g/ha, sprayed after cultivation for one day, evaluated after 13 days, read-out: Pre-Emergence Activity AVEFA (100=total damage to plant; 0=no damage to plant)
Method: as §1, §2, §3

Lolium perenne (LOLPE) [3] = assay: Example A glasshouse herbicide test, post-emergence, LOLPE; conditions: Lolium perenne, post-emergence, 312 h, Rate 250 g/ha, sprayed after 8 days cultivation, evaluated after 13 days, read-out: Post-Emergence Activity LOLPE (100=total damage to plant; 0=no damage to plant)
Method: as §1, §2, §3

[4] = test system: Echinochloa crus-galli (ECHCG); assay: Example A glasshouse herbicide test, post-emergence, ECHCG; conditions: Echinochloa crus-galli, post-emergence, 312 h, Rate 250 g/ha, sprayed after 8 days cultivation, evaluated after 13 days, read-out: Post-Emergence Activity ECHCG (100=total damage to plant; 0=no damage to plant)
Method: as §1, §2, §3

[5] = test system: Winter Wheat variety 'Hereward'; assay: Example B crop damage test, post-emergence, unsafened wheat; conditions: Rate 250 g/ha; post-emergence spray after 8 days cultivation; no safener; evaluated after 13 days
Method: Seeds of the Winter Wheat variety ‘Hereward’ were sown in standard soil in pots. After 8 days cultivation under controlled conditions in a glasshouse (at 24/16° C., day/night; 14 hours light; 65% humidity), the plants were sprayed post-emergence with an aqueous spray solution derived from the formulation of the technical active ingredient in acetone/water (50:50) solution containing 0.5% Tween 20 (polyoxyethelyene sorbitan monolaurate, CAS RN 9005-64-5).
(§4) The test plants were then grown in a glasshouse under controlled conditions in a glasshouse (at 24/16° C., day/night; 14 hours light; 65% humidity) and watered twice daily. After 13 days for pre and post-emergence, the test was evaluated (100=total damage to plant; 0=no damage to plant).

[6] = test system: Winter Wheat variety 'Hereward'; assay: Example B crop damage test, post-emergence, wheat seed treated with safener cloquintocet mexyl; conditions: Rate 250 g/ha; post-emergence spray 8 days after sowing; seed treated with cloquintocet mexyl 0.5 g/kg dry seed; evaluated after 13 days
Method: Seeds of the Winter Wheat variety ‘Hereward’ were seed treated with a wettable powder formulation of the cereal herbicide safener, cloquintocet mexyl, at a rate of 0.5 grams per kilogram of dry seed prior to the initiation of glasshouse testing. One seed was sown per 1.5 inch plastic pot into a sandy loam soil at a depth of 1 cm, 8 days prior to application of the test compounds and was watered and grown under controlled conditions in a glasshouse (at 24/16° C., day/night; 14 hours light; 65% humidity). The plants were sprayed post-emergence with an aqueous spray solution derived from the formulation of the technical active ingredient in acetone/water (50:50) solution containing 0.5% Tween 20 (polyoxyethelyene sorbitan monolaurate, CAS RN 9005-64-5).
as §4

Lolium perenne (LOLPE) [7] = assay: Example A glasshouse herbicide test, pre-emergence, LOLPE; conditions: Lolium perenne, pre-emergence, 312 h, Rate 250 g/ha, sprayed after cultivation for one day, evaluated after 13 days, read-out: Pre-Emergence Activity LOLPE (100=total damage to plant; 0=no damage to plant)
Method: as §1, §2, §3

[8] = test system: Alopecurus myosuroides (ALOMY); assay: Example A glasshouse herbicide test, post-emergence, ALOMY; conditions: Alopecurus myosuroides, post-emergence, 312 h, Rate 250 g/ha, sprayed after 8 days cultivation, evaluated after 13 days, read-out: Post-Emergence Activity ALOMY (100=total damage to plant; 0=no damage to plant)
Method: as §1, §2, §3

[9] = test system: Echinochloa crus-galli (ECHCG); assay: Example A glasshouse herbicide test, pre-emergence, ECHCG; conditions: Echinochloa crus-galli, pre-emergence, 312 h, Rate 250 g/ha, sprayed after cultivation for one day, evaluated after 13 days, read-out: Pre-Emergence Activity ECHCG (100=total damage to plant; 0=no damage to plant)
Method: as §1, §2, §3

Avena fatua (AVEFA) [10] = assay: Example A glasshouse herbicide test, post-emergence, AVEFA; conditions: Avena fatua, post-emergence, 312 h, Rate 250 g/ha, sprayed after 8 days cultivation, evaluated after 13 days, read-out: Post-Emergence Activity AVEFA (100=total damage to plant; 0=no damage to plant)
Method: as §1, §2, §3

Row | Structure (SMILES) | pest or weed control at 250 g/ha [1] [%] | pest or weed control at 250 g/ha (Avena fatua (AVEFA) [2]) [%] | pest or weed control at 250 g/ha (Lolium perenne (LOLPE) [3]) [%] | pest or weed control at 250 g/ha [4] [%] | Winter Wheat (Hereward) damage (100=total damage to plant; 0=no damage to plant) [5] | Winter Wheat (Hereward) + cloquintocet mexyl damage (100=total damage to plant; 0=no damage to plant) [6] | pest or weed control at 250 g/ha (Lolium perenne (LOLPE) [7]) [%] | pest or weed control at 250 g/ha [8] [%] | pest or weed control at 250 g/ha [9] [%] | pest or weed control at 250 g/ha (Avena fatua (AVEFA) [10]) [%]
1 | Cc1cc(C)c(C2C(=O)CC(CC3CC3)C2=O)c(C)c1 (stereo not drawn) [Compound A28, 4-Cyclopropylmethyl-2-(2,4,6-trimethyl-phenyl)-cyclopentane-1,3-dione] | 90 | 70 | 100 | 90 | 30 | 10 | 100 | 70 | 100 | 50
2 | COC1CCC(CC2CC(=O)C(c3c(C)cc(C)cc3C)C2=O)CC1 (stereo not drawn) [Compound A38, 4-(4-Methoxy-cyclohexylmethyl)-2-(2,4,6-trimethyl-phenyl)-cyclopentane-1,3-dione] | 90 | 60 | 100 | 100 | 70 | 50 | 100 | 100 | 100 | 100
3 | Cc1cc(C)c(C2C(=O)CC(CC3CC(C)CCC3C)C2=O)c(C)c1 (stereo not drawn) [Compound A6] | 50 | 50 | 80 | 80 | 10 | 0 | 100 | 80 | 90 | 60
4 | Cc1cc(C)c(C2=C(OC(=O)C(C)(C)C)C/C(=C\C3CCCCC3)C2=O)c(C)c1 [Compound B1] | 70 | 20 | 70 | 30 | 10 | 0 | 80 | 50 | 100 | 10
5 | Cc1cc(C)c(C2C(=O)CC(CC3CCC3)C2=O)c(C)c1 (stereo not drawn) [Compound A25] | 100 | 60 | 100 | 90 | 30 | 0 | 100 | 60 | 100 | 80
6 | Cc1cc(C)c(C2C(=O)CC(CC3CCCC(C)C3)C2=O)c(C)c1 (stereo not drawn) [Compound A32] | 70 | 50 | 100 | 100 | 30 | 0 | 90 | 70 | 100 | 90
7 | Cc1cc(C)c(C2C(=O)C/C(=C\C3CCCC4CCCCC34)C2=O)c(C)c1 (stereo not drawn) [Compound A31] | 40 | 20 | 70 | 80 | 20 | 0 | 90 | 20 | 90 | 20
8 | Cc1cc(C)c(C2C(=O)C/C(=C\C3CCCC(C)C3)C2=O)c(C)c1 (stereo not drawn) [Compound A30] | 80 | 70 | 60 | 80 | 50 | 0 | 100 | 60 | 100 | 70
9 | Cc1cc(Br)cc(C)c1C1C(=O)C/C(=C\C2CCCCC2)C1=O (stereo not drawn) [Compound A7] | 40 | 20 | 30 | 80 | 20 | 0 | 60 | 50 | 50 | 40
10 | C=C(C)C1CCC(/C=C2\CC(=O)C(c3c(C)cc(C)cc3C)C2=O)CC1 (stereo not drawn) [Compound A5] | 30 | 0 | 30 | 30 | 10 | 0 | 40 | 30 | 80 | 20
11 | Cc1cc(C)c(C2C(=O)CC(CC3CC(C)CCC3C(C)C)C2=O)c(C)c1 (stereo not drawn) [Compound A34] | 10 | 0 | 30 | 10 | 20 | 10 | 0 | 20 | 60 | 10
12 | Cc1cc(C)c(C2C(=O)C/C(=C\C3CC3)C2=O)c(C)c1 (stereo not drawn) [Compound A27, 4-[1-Cyclopropyl-methylidene]-2-(2,4,6-trimethyl-phenyl)-cyclopentane-1,3-dione] | 90 | 70 | 100 | 100 | 40 | 0 | 100 | 60 | 100 | 70
